IC50 data for 33 molecules are collected here from patent US20150133426A1, “SUBSTITUTED PYRROLOPYRIMIDINES” (BAYER PHARMA AKTIENGESELLSCHAFT, priority 2012, published 2015).

As a reminder, the IC50 is the concentration needed to halve the response being measured.

T1 sequence (Q9BUB5 1-424 isoform Q9BUB5-2 T344D): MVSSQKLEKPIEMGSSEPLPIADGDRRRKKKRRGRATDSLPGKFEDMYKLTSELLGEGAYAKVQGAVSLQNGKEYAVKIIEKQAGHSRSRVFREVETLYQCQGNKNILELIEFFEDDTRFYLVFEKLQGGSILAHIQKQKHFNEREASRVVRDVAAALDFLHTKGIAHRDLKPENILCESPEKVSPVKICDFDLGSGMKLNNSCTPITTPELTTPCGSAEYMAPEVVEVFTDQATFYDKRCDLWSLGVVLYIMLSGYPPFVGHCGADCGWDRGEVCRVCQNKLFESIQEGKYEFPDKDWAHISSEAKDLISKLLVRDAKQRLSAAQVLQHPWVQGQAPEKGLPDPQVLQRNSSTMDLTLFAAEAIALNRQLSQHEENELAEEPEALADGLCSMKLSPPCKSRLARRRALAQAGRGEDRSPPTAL

The assay has as its target T1, human full-length MKNK1 (Homo sapiens, UniProt Q9BUB5, T385D).
T1 construct: purchased Carna Biosciences 02-145; host or cells: insect cells, baculovirus expression system
The assay is described as follows: MKNK1 kinase high ATP assay (TR-FRET). The conditions noted are these: high ATP (2 mM), 15 min preincubation with enzyme, GST-MKNK1 (T344D). Type of assay: biochemical. A digest of the protocol:
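GST-tagged full-length human MKNK1 (aa 1-424, T344D), baculovirus-expressed, preincubated 15 min with compound, then reacted 30 min at 22 °C with 2 mM ATP and 0.06 µM biotinylated peptide (final).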
In general terms: TR-FRET usually uses a lanthanide donor and a delayed reading to cut background.
Molecule `[O-][S+]1CCc2[nH]c3ncnc(Nc4ccc5[nH]ncc5c4)c3c2C1` (racemic) [Example 85, (RS)—N-(1H-Indazol-5-yl)-5,7,8,9-tetrahydrothiopyrano[3′,4′:4,5]pyrrolo[2,3-d]pyrimidin-4-amine 6-oxide] came in with a 50% inhibitory concentration (IC50) of 192 nM.

In turn, `CC(C)Oc1cc(F)ccc1Nc1ncnc2[nH]c3c(c12)C[S+]([O-])CC3` (racemic) [Example 86, (RS)—N-(4-Fluoro-2-isopropoxyphenyl)-5,7,8,9-tetrahydrothiopyrano[3′,4′:4,5]pyrrolo[2,3-d]pyrimidin-4-amine 6-oxide] had an IC50 of 220 nM. This IC50 and that of the molecule before are within 1.5-fold of each other.

With `COc1ccc(C(F)(F)F)cc1Nc1ncnc2[nH]c3c(c12)CC(C(=O)O)CC3` (racemic) [Example 103, (RS)-4-{[2-Methoxy-5-(trifluoromethyl)phenyl]amino}-6,7,8,9-tetrahydro-5H-pyrimido[4,5-b]indole-6-carboxylic acid], the IC50 amounted to 400 nM.

As to `COCC1(OC)CCc2[nH]c3ncnc(Nc4cc5[nH]c(=O)[nH]c5cc4Cl)c3c2C1` (racemic) [Example 131], the IC50 is 5700 nM.

Molecule `COCC1(OC)CCc2[nH]c3ncnc(Nc4cc(Cl)ccc4OC(C)C)c3c2C1` (racemic) [Example 132] had an IC50 of 503 nM.

For `COCC1(OC)CCc2[nH]c3ncnc(Nc4cc(Cl)ccc4OC)c3c2C1` (racemic) [Example 133], the IC50 turned out to be 205 nM.

`COCC1(OC)CCc2[nH]c3ncnc(Nc4ccc(F)cc4OC4CCCC4)c3c2C1` (racemic) [Example 134] came in with an IC50 of 1650 nM. Against the preceding molecule, the IC50 is about 8-fold higher.

Molecule `COCC1(OC)CCc2[nH]c3ncnc(Nc4ccc5[nH]ncc5c4)c3c2C1` (racemic) [Example 135] registered an IC50 of 167 nM.

`COCC1(OC)CCc2[nH]c3ncnc(Nc4cc5cn[nH]c5cc4OC)c3c2C1` (racemic) [Example 136]: the IC50 was found to be 48 nM.

In turn, `COCC1(OC)CCc2[nH]c3ncnc(Nc4ccc(F)cc4OC(C)C)c3c2C1` (racemic) [Example 137] showed an IC50 of 773 nM. Compared with the last molecule, the IC50 is about 16-fold higher.

`COCC1(OC)CCc2[nH]c3ncnc(Nc4ccc5[nH]c(=O)sc5c4)c3c2C1` (racemic) [Example 138] yielded an IC50 of 358 nM.

In turn, `COCC1(OC)CCc2[nH]c3ncnc(Nc4cc5cn[nH]c5cc4F)c3c2C1` (racemic) [Example 139] showed an IC50 of 197 nM.

In the case of `COCC1(OC)CCc2[nH]c3ncnc(Nc4cc(Cl)c(Cl)cc4OC)c3c2C1` (racemic) [Example 140], the IC50 is 339 nM.

As to `CS(=O)(=O)CCCNC(=O)C1CCc2[nH]c3ncnc(Sc4ccc5[nH]ncc5c4)c3c2C1` (racemic) [Example 146, (RS)-4-(1H-Indazol-5-ylsulfanyl)-N-[3-(methylsulfonyl)propyl]-6,7,8,9-tetrahydro-5H-pyrimido[4,5-b]indole-6-carboxamide], the IC50 was found to be 1130 nM. Compared with the last molecule, the IC50 is about 3.3-fold higher.

As to `COc1cc(F)ccc1Sc1ncnc2[nH]c3c(c12)CC(C(=O)NCCCS(C)(=O)=O)CC3` (racemic) [Example 147, (RS)-4-[(4-Fluoro-2-methoxyphenyl)sulfanyl]-N-[3-(methylsulfonyl)propyl]-6,7,8,9-tetrahydro-5H-pyrimido[4,5-b]indole-6-carboxamide], the IC50 amounted to 5920 nM.

On to `COc1ccc(Cl)cc1Sc1ncnc2[nH]c3c(c12)CC(C(=O)NCCCS(C)(=O)=O)CC3` (racemic) [Example 148, (RS)-4-[(5-Chloro-2-methoxyphenyl)sulfanyl]-N-[3-(methylsulfonyl)propyl]-6,7,8,9-tetrahydro-5H-pyrimido[4,5-b]indole-6-carboxamide], for which the IC50 stood at 1730 nM.

Turning to `COc1ccc(Cl)cc1Nc1ncnc2[nH]c3c(c12)CC(C(=O)NCCCS(C)(=O)=O)CC3` (racemic) [Example 149, (RS)-4-[(5-Chloro-2-methoxyphenyl)amino]-N-[3-(methylsulfonyl)propyl]-6,7,8,9-tetrahydro-5H-pyrimido[4,5-b]indole-6-carboxamide], inhibition was half-maximal at 10 nM (IC50).

In turn, `CC(C)Oc1ccc(Cl)cc1Nc1ncnc2[nH]c3c(c12)CC(C(=O)NCCCS(C)(=O)=O)CC3` (racemic) [Example 150, (RS)-4-{[5-Chloro-2-(propan-2-yloxy)phenyl]amino}-N-[3-(methylsulfonyl)propyl]-6,7,8,9-tetrahydro-5H-pyrimido[4,5-b]indole-6-carboxamide] showed an IC50 of 12 nM.

Molecule `CS(=O)(=O)CCCNC(=O)C1CCc2[nH]c3ncnc(Nc4ccccc4OCC4CC4)c3c2C1` (racemic) [Example 151, (RS)-4-{[2-(Cyclopropylmethoxy)phenyl]amino}-N-[3-(methylsulfonyl)propyl]-6,7,8,9-tetrahydro-5H-pyrimido[4,5-b]indole-6-carboxamide] gave an IC50 of 190 nM.

`CS(=O)(=O)CCCNC(=O)C1CCc2[nH]c3ncnc(Nc4ccccc4OCC(F)F)c3c2C1` (racemic) [Example 152, (RS)-4-{[2-(2,2-Difluoroethoxy)phenyl]amino}-N-[3-(methylsulfonyl)propyl]-6,7,8,9-tetrahydro-5H-pyrimido[4,5-b]indole-6-carboxamide] displayed an IC50 of 113 nM.

With `CC(C)COc1ccccc1Nc1ncnc2[nH]c3c(c12)CC(C(=O)NCCCS(C)(=O)=O)CC3` (racemic) [Example 153, (RS)-4-{[2-(2-Methylpropoxy)phenyl]amino}-N-[3-(methylsulfonyl)propyl]-6,7,8,9-tetrahydro-5H-pyrimido[4,5-b]indole-6-carboxamide], the IC50 was 193 nM. This IC50 is about 1.7-fold higher than that of the molecule before.

In turn, `CS(=O)(=O)CCCNC(=O)C1CCc2[nH]c3ncnc(Nc4ccccc4OC(F)F)c3c2C1` (racemic) [Example 154, (RS)-4-{[2-(Difluoromethoxy)phenyl]amino}-N-[3-(methylsulfonyl)propyl]-6,7,8,9-tetrahydro-5H-pyrimido[4,5-b]indole-6-carboxamide] had an IC50 of 469 nM.

Molecule `CS(=O)(=O)CCCNC(=O)C1CCc2[nH]c3ncnc(Nc4ccc5[nH]c(=S)sc5c4)c3c2C1` (racemic) [Example 155, (RS)—N-[3-(Methylsulfonyl)propyl]-4-[(2-thioxo-2,3-dihydro-1,3-benzothiazol-6-yl)amino]-6,7,8,9-tetrahydro-5H-pyrimido[4,5-b]indole-6-carboxamide] displayed a half-inhibitory concentration (IC50) of 504 nM.

In turn, `Cc1ccc(Nc2ncnc3[nH]c4c(c23)CC(C(=O)NCCCS(C)(=O)=O)CC4)c(OC(F)F)c1` (racemic) [Example 156, (RS)-4-{[2-(Difluoromethoxy)-4-methylphenyl]amino}-N-[3-(methylsulfonyl)propyl]-6,7,8,9-tetrahydro-5H-pyrimido[4,5-b]indole-6-carboxamide] had an IC50 not below 20000 nM.

In turn, `COc1cc(F)c(Cl)cc1Nc1ncnc2[nH]c3c(c12)CC(C(=O)NCCCS(C)(=O)=O)CC3` (racemic) [Example 157, (RS)-4-[(5-Chloro-4-fluoro-2-methoxyphenyl)amino]-N-[3-(methylsulfonyl)propyl]-6,7,8,9-tetrahydro-5H-pyrimido[4,5-b]indole-6-carboxamide] registered an IC50 of 444 nM.

`COc1ccc(N(C)C)cc1Nc1ncnc2[nH]c3c(c12)CC(C(=O)NCCCS(C)(=O)=O)CC3` (racemic) [Example 158, (RS)-4-{[5-(Dimethylamino)-2-methoxyphenyl]amino}-N-[3-(methylsulfonyl)propyl]-6,7,8,9-tetrahydro-5H-pyrimido[4,5-b]indole-6-carboxamide] yielded an IC50 not below 20000 nM.

`CS(=O)(=O)CCCNC(=O)C1CCc2[nH]c3ncnc(Nc4ccc(F)cc4OCCO)c3c2C1` (racemic) [Example 159, (RS)-4-{[4-Fluoro-2-(2-hydroxyethoxy)phenyl]amino}-N-[3-(methylsulfonyl)propyl]-6,7,8,9-tetrahydro-5H-pyrimido[4,5-b]indole-6-carboxamide] registered an IC50 of 36 nM.

In turn, `CCCOc1ccc(F)cc1Nc1ncnc2[nH]c3c(c12)CC(C(=O)NCCCS(C)(=O)=O)CC3` (racemic) [Example 160, (RS)-4-[(5-Fluoro-2-propoxyphenyl)amino]-N-[3-(methylsulfonyl)propyl]-6,7,8,9-tetrahydro-5H-pyrimido[4,5-b]indole-6-carboxamide] gave an IC50 of 37 nM.

Molecule `COc1cc(F)c(F)cc1Nc1ncnc2[nH]c3c(c12)CC(C(=O)NCCCS(C)(=O)=O)CC3` (racemic) [Example 161, (RS)-4-[(4,5-Difluoro-2-methoxyphenyl)amino]-N-[3-(methylsulfonyl)propyl]-6,7,8,9-tetrahydro-5H-pyrimido[4,5-b]indole-6-carboxamide] registered an IC50 of 35 nM.

On to `COc1cc(Cl)c(C)cc1Nc1ncnc2[nH]c3c(c12)CC(C(=O)NCCCS(C)(=O)=O)CC3` (racemic) [Example 162, (RS)-4-[(4-Chloro-2-methoxy-5-methylphenyl)amino]-N-[3-(methylsulfonyl)propyl]-6,7,8,9-tetrahydro-5H-pyrimido[4,5-b]indole-6-carboxamide], for which half-maximal inhibition (IC50) was put at 120 nM. Compared with the last molecule, the IC50 is about 3.4-fold higher.

On to `COc1cc2[nH]ncc2cc1Nc1ncnc2[nH]c3c(c12)CC(C(=O)NCCCS(C)(=O)=O)CC3` (racemic) [Example 163, (RS)-4-[(6-Methoxy-1H-indazol-5-yl)amino]-N-[3-(methylsulfonyl)propyl]-6,7,8,9-tetrahydro-5H-pyrimido[4,5-b]indole-6-carboxamide], for which the IC50 came out at 4 nM.

`COc1cc2[nH]c(=O)[nH]c2cc1Nc1ncnc2[nH]c3c(c12)CC(C(=O)NCCCS(C)(=O)=O)CC3` (racemic) [Example 164, (RS)-4-[(6-Methoxy-2-oxo-2,3-dihydro-1H-benzimidazol-5-yl)amino]-N-[3-(methylsulfonyl)propyl]-6,7,8,9-tetrahydro-5H-pyrimido[4,5-b]indole-6-carboxamide] registered an IC50 of 225 nM.

In turn, `CCOc1cc(Cl)ccc1Nc1ncnc2[nH]c3c(c12)CC(C(=O)NCCCS(C)(=O)=O)CC3` (racemic) [Example 165, (RS)-4-[(4-Chloro-2-ethoxyphenyl)amino]-N-[3-(methylsulfonyl)propyl]-6,7,8,9-tetrahydro-5H-pyrimido[4,5-b]indole-6-carboxamide] yielded an IC50 of 86 nM.
